Laboratory results reported in ChEMBL document CHEMBL4265991.
Activity calls are given as the source filed them. The rule behind the calls is not given here.

Key:
[1] = Selectivity index, ratio of IC50 for recombinant human His-tagged IMPDH1 to IC50 for recombinant Cryptococcus neoformans His-tagged IMPDH
[2] = Selectivity index, ratio of IC50 for recombinant human His-tagged IMPDH2 to IC50 for recombinant Cryptococcus neoformans His-tagged IMPDH
[3] = target: Inosine-5'-monophosphate dehydrogenase (Cryptococcus neoformans var. neoformans serotype D (strain JEC21 /ATCC MYA-565) (Filobasidiella neoformans)) (UniProt Q5KP44); assay: Inhibition of recombinant Cryptococcus neoformans His-tagged IMPDH expressed in Escherichia coli BL21 (DE3) using IMP as substrate and DTT containing buffer in presence of NAD
Sequence of Inosine-5'-monophosphate dehydrogenase (Cryptococcus neoformans var. neoformans serotype D (strain JEC21 /ATCC MYA-565) (Filobasidiella neoformans)) (Q5KP44 whole entry, looked up): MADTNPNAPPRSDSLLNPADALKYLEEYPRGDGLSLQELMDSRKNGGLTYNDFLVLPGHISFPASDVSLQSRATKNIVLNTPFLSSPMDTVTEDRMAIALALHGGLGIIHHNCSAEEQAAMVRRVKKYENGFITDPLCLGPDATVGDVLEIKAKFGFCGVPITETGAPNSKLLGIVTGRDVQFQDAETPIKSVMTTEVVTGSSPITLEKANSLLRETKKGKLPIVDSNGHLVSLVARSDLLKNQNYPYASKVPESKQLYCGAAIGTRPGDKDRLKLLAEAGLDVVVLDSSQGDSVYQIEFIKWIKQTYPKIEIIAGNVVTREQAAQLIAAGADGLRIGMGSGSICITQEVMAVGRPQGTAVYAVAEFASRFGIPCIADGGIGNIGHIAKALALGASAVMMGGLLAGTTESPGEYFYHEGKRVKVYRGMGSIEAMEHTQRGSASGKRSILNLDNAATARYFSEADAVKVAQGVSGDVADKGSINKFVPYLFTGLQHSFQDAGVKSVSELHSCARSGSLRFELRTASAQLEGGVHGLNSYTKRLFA

Ratio IC50 [1] | Ratio IC50 [2] | inhibition [3] | Compound
> 30 | > 30 |  | COC(=O)c1ccc(-c2nnc(SC3=CS(=O)(=O)c4ccccc43)o2)cc1
 |  | inactive | COc1ccccc1-c1nnc(SC2=CS(=O)(=O)c3ccccc32)o1
 |  | inactive | O=S1(=O)C=C(Sc2nnc(-c3ccccc3)o2)c2ccccc21
> 30 | > 30 |  | COc1ccc(-c2nnc(SC3=CS(=O)(=O)c4ccccc43)o2)cc1
